Data as given in BindingDB's records for patent US11919896 (Zhuhai United Laboratories Co., 2024).

Tests used:
Experiment in all cases: In Vitro Test of Activities of Jak1, Jak2, Jak3, Tyk2 Kinases
[1] = target: T1, Tyrosine-protein kinase JAK3 (Homo sapiens, UniProt P52333)
T1 sequence (P52333 whole entry): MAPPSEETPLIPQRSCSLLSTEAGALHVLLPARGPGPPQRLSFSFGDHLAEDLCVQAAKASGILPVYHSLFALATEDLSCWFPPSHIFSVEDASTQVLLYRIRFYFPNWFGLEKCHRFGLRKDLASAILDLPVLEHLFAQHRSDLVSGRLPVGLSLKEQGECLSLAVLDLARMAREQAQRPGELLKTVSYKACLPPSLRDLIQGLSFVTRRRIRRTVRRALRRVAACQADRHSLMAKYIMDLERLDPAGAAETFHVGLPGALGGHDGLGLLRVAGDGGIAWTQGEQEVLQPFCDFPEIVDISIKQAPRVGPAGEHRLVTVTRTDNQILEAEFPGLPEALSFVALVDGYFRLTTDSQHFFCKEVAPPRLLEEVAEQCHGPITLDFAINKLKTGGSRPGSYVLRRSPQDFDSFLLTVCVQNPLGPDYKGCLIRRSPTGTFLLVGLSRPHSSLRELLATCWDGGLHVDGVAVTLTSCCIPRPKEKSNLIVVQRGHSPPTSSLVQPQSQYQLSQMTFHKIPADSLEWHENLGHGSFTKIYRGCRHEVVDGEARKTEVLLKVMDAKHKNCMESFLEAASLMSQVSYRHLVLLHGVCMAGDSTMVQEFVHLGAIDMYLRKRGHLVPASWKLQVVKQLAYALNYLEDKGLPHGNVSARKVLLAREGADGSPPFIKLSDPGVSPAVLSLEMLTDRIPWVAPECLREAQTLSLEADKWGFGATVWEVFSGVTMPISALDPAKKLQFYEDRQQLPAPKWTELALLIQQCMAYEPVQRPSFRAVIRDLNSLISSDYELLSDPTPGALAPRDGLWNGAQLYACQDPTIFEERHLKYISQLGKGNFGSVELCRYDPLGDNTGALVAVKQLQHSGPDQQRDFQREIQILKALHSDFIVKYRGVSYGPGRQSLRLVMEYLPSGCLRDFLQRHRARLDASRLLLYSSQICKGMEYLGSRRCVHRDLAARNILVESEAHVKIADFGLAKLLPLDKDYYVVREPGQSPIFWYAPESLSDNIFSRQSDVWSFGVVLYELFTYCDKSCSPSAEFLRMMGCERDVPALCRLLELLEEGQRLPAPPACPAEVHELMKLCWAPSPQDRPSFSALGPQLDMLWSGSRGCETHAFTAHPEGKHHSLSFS

[2] = target: Tyrosine-protein kinase JAK1 (Homo sapiens, UniProt P23458)
Tyrosine-protein kinase JAK1, sequence (P23458 whole entry): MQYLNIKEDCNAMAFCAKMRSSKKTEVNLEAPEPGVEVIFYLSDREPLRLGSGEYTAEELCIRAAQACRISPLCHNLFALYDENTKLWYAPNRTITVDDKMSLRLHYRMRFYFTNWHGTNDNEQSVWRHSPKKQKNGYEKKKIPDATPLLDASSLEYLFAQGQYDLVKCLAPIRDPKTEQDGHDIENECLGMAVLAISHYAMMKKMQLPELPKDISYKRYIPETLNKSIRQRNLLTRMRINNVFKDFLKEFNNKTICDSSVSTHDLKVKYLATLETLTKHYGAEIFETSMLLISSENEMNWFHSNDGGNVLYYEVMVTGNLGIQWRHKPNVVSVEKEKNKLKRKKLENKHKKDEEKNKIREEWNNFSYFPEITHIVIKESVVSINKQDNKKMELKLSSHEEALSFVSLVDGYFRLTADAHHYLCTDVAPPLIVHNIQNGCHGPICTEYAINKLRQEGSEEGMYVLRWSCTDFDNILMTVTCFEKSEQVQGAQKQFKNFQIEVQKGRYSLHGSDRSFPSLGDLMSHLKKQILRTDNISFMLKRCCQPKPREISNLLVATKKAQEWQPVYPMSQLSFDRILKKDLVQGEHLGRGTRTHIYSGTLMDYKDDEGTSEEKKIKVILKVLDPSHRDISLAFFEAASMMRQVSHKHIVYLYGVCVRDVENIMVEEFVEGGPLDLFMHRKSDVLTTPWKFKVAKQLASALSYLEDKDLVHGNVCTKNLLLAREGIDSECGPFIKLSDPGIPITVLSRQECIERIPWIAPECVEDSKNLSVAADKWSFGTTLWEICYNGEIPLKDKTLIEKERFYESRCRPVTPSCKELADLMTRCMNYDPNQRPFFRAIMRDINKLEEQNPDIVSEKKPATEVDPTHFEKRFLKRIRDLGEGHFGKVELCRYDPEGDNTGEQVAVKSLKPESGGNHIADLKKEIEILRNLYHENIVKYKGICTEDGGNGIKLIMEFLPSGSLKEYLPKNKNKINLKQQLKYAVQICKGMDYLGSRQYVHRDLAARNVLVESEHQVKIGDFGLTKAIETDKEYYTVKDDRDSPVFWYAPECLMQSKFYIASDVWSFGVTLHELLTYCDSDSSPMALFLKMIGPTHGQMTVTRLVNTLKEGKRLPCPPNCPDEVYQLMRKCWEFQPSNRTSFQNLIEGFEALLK

[3] = target: Tyrosine-protein kinase JAK2 (Homo sapiens, UniProt O60674)
Tyrosine-protein kinase JAK2, sequence (O60674 whole entry): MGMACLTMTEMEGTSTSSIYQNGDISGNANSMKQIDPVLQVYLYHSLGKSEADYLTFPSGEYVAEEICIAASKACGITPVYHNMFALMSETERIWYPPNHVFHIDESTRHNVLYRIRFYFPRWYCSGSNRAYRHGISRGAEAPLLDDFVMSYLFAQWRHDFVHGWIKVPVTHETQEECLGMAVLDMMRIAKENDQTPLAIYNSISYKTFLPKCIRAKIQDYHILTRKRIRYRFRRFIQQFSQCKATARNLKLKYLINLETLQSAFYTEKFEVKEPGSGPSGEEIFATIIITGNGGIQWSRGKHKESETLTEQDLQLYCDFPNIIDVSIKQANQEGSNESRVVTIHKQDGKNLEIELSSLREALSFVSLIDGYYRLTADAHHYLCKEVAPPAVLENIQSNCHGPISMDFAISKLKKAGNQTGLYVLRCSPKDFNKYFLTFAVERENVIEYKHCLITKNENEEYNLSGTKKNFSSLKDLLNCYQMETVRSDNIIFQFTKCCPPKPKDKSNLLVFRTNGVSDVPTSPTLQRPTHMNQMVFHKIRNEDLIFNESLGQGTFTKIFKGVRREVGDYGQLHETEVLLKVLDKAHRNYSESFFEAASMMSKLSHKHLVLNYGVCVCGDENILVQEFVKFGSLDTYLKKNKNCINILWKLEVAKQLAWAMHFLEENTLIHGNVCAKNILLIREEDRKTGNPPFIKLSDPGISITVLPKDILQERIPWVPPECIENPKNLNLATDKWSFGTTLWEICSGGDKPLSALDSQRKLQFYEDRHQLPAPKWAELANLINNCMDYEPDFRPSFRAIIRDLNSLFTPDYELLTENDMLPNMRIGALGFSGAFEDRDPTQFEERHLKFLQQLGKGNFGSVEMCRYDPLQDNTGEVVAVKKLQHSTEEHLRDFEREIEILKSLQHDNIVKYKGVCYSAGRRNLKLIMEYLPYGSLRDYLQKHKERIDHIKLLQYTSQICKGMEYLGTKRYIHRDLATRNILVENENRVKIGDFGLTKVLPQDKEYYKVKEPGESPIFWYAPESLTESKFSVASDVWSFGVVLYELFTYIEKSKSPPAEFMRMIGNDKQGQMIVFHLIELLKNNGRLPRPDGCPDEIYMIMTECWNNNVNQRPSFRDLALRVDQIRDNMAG

[4] = target: Non-receptor tyrosine-protein kinase TYK2 (Homo sapiens, UniProt P29597)
Non-receptor tyrosine-protein kinase TYK2, sequence (P29597 whole entry): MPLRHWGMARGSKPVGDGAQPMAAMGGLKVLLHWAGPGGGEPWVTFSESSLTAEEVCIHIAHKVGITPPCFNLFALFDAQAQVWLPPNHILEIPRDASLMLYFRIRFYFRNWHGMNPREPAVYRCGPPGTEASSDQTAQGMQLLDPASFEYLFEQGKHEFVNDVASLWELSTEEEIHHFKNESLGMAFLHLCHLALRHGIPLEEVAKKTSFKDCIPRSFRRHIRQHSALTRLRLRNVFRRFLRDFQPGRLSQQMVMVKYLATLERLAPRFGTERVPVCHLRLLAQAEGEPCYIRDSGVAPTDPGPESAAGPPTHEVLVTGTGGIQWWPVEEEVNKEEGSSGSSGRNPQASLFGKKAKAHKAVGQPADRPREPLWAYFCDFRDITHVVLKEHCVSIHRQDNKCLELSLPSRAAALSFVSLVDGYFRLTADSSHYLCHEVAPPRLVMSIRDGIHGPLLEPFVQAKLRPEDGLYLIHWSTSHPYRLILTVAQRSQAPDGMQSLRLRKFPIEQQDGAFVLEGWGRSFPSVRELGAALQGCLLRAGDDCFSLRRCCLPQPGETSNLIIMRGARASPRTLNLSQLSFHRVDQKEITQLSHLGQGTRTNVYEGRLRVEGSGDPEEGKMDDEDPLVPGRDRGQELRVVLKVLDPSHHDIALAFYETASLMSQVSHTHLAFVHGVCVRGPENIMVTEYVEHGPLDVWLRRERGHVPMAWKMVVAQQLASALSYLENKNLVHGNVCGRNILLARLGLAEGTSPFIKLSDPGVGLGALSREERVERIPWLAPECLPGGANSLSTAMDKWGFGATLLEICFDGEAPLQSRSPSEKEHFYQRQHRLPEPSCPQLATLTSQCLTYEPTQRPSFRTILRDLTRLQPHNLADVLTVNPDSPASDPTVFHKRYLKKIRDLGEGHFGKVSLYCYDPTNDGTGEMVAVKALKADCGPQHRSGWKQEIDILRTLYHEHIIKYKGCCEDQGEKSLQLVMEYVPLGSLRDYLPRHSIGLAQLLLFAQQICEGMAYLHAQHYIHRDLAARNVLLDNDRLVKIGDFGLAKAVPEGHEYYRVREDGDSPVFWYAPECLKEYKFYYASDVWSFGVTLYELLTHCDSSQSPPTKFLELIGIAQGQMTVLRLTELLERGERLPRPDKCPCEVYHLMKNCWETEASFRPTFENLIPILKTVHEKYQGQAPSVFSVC

| Structure (SMILES) | IC50 [1] [nM] | IC50 [2] [nM] | IC50 [3] [nM] | IC50 [4] [nM] |
| --- | --- | --- | --- | --- |
| O=C(Nc1nc2cccc(C3(F)CCC4(CC3)CN(C(=O)CC(F)(F)F)C4)n2n1)C1CC1 [US11919896, Compound 4-7] | > 10000 | 436 | 7690 | 194 |
| O=C(Nc1nc2cccc(C3(F)CCC4(CC3)CN(C(=O)CC(F)F)C4)n2n1)C1CC1 [US11919896, Compound 4-8] | 364 | 244 | 3710 | > 10000 |
| O=C(Nc1nc2cccc(C3CCC4(CC3)CN(C(=O)C3(F)CC3)C4)n2n1)[C@H]1CC1(F)F [US11919896, Compound 8-7] | > 10000 | 63 | 5460 | 1030 |

The next lines start with the values.

| IC50 [1] [nM] | IC50 [2] [nM] | IC50 [3] [nM] | IC50 [4] [nM] | Structure (SMILES) |
| --- | --- | --- | --- | --- |
| > 10000 | 60 | 1380 | 109 | N#CCC(=O)N1CC2(CCC(c3cccc4nc(NC(=O)[C@H]5CC5(F)F)nn34)CC2)C1 [US11919896, Compound 8-8] |
|  | 224 | 624 | 175 | N#CCC(=O)N1CC2(CCC(c3cccc4nc(NC(=O)C5CC5(F)F)nn34)CC2)C1 (stereo not drawn) [US11919896, Compound 9-5] |
| > 10000 | 253 | 982 | 1190 | O=C(Nc1nc2cccc(C3CCC4(CC3)CN(C(=O)C3(F)CC3)C4)n2n1)[C@@H]1CC1(F)F [US11919896, Compound 9-4] |
